These results are taken from patent US20240091227A1, “Use Of 2-Phenyl-6-(1H-Imidazol-1-YL) Quinazoline For Treating Neurodegenerative Diseases, Preferably Alzheimer's Disease” (ROTTAPHARM BIOTECH S.R.L., priority 2019, published 2024).

Like-named read-outs stand apart in the source and are kept apart here.

Experiment [1] relates to Mice treated with scopolamine. The experiment can be described thus: Novel object recognition in scopolamine-induced memory impairment. It is filed as in vivo, mouse. The following applies: scopolamine 1 mg/kg ip, CR4056 6 and 20 mg/kg os. The protocol:
FIG. 5 reports the results of Novel Object recognition test in the model of scopolamine-induced memory loss. Data presented as % of time spent on exploration of new and old object in testing phase. *p<0.05; **P<0.01; t student test (n=6).
The novel object recognition test was used to evaluate cognitive function based on the ability of mice to recognize various object proposed in the arena test. During the training phase a pair of identical objects were placed in the cage test. 24 hours after the first phase, during the testing phase one of the two object was replaced by a new different one. Time of exploration of each object was recorded in training and testing phase. The typical approach of mice was a similar exploration of the objects in training phase and a preference for the new object during the testing phase. The administration of substances that can worsen cognitive performance (i.e., scopolamine) caused the deletion of reminder of the old object and an equal exploration of 2 different objects. Scopolamine 1 mg/kg was administered ip 20 minutes before the training, whereas CR4056 6 and 20 mg/kg was administered os 40 minutes before the training.

Experiment [2] deals with PKCε. Put plainly: PKCε translocation to the plasma membrane in cultured dorsal root ganglia neurons. The class given is cell-based, rat. The following applies: for IC50: rat DRG neurons. The protocol: FIG. 1 reports the time-course (A) and washout (B) of CR4056 effect on PKCF translocation induced by bradykinin (BK 1 μM). In Panel A, open symbols represent the percentage of neurons positive for PKCF translocation following BK stimulation in absence of the drug. Filled symbols represent neurons pre-incubated with CR4056 ([…]) for different times before the stimulation for 30 seconds with BK+CR4056. The first filled symbol indicates the effect of CR4056 co-incubated for 30 seconds with BK, the second filled symbol indicates 10 seconds of pre-incubation of CR4056, and the last indicates 24 hours of pre-incubation of CR4056. […] In Panel B, BK-induced PKCF translocation was evaluated before (open symbol) and after pre-incubation of CR4056 ([…]) at different time intervals (from 10 minutes to 8 hours) (filled symbols). The first datapoint was obtained at the end of the 10 minute pre-incubation, when CR4056 was still present. The subsequent datapoints were obtained after extensive rinsing to ensure complete removal of the drug from extracellular solution (n=3).
Rat dorsal root ganglia (DRGs) were obtained from freshly isolated spines after carefully removing nerve trunks and connective tissue. Larger ganglia, chopped into 2-4 smaller pieces were then incubated for 1 hour at 37° C. in 0.125% collagenase (Worthington, Freehold, NJ) dissolved in Dulbecco's modified Eagle's medium (DMEM) containing 10% fetal bovine serum (FBS) plus 1% penicillin/streptomycin and 1% L-glutamine (Euroclone, Milan, Italy). After enzymatic digestion, ganglia were mechanically dissociated and neurons plated at a density such that neurons would cover about 30% of coverslip surface in a single layer, in petri dishes containing wells with a glass bottom coverslip (pre-coated with 10 μg/mL poly-L-lysine and 20 µg/ml laminin, Sigma-Aldrich, Milan, Italy). Cells were incubated for 2-3 days in DMEM as described above, plus 1.5 μg/ml cytosine 1-d-arabinofuranoside (ARA-C, Sigma-Aldrich) to slow down proliferation of non neuronal cells, and 100 ng/ml nerve growth factor (NGF, Sigma-Aldrich) to increase cell health and the and the expression of receptors which are linked to PKCF translocation upon stimulation. Activation of membrane receptors coupled to phospholipase C pathway leads to PKCF translocation from cytoplasm to the plasma membrane. In order to study PKCε behaviour a well established technique was employed (Vellani V, Neuroscience, 2006). […] CR4056 was pre-applied in the culture medium for 10 min or co-applied with the stimulus. After fixation, cells were permeabilized with 0.2% Triton X-100 (Sigma-Aldrich, Milan, Italy) and exposed overnight to a rabbit polyclonal antibody highly specific for PKCF. After extensive rinsing, PKCF was visualized with a secondary antibody (1:200 dilution Alexa Fluor 488 goat anti-rabbit, Thermo Fisher Scientific, Monza, Italy) applied for 2-4 hours at room temperature in the dark Cells showing PKCF translocation were detected with a confocal microscope (Leica SP2, Leica, Switzerland) by measuring fluorescence intensity along a line drawn through the cytoplasm and the membrane, thus avoiding the nucleus. Neurons in which fluorescence intensity at the plasma membrane throughout the cell was 1.5-fold or higher than the mean cytoplasmic intensity were considered positive.

Experiment [3] deals with Rats treated with scopolamine. The experiment can be described thus: Passive avoidance in scopolamine-induced memory impairment. It is filed as in vivo, rat. The protocol: FIG. 3 reports results of a passive avoidance test in the model of scopolamine-induced memory loss. Rats treated with scopolamine (Sco, 1 mg/kg) or physiological solution (Sal) received CR4056 10 mg/kg bid or its vehicle (MC). t student test. *p<0.05; **P<0.01 (n=6).
Scopolamine, a nonselective muscarinic receptor antagonist, produces a blocking of the activity of the muscarinic acetylcholine receptor, and the concomitant appearance of transient cognitive amnesia and electrophysiological changes, which resemble those observed in Alzheimer's disease. Therefore, scopolamine administration may be considered as a psychopharmacological model of Alzheimer's disease (Lenz R A, Psychopharmacology (Berl), 2012). Passive avoidance is a behavioural model of memory impairment.
The apparatus consisted of a two-compartment box: light and dark compartments separated by a door. The rat was placed in the center of the light compartment, with the door between two compartments closed. After 4 seconds, the door was opened and the latency time, i.e., the time taken by the rat to enter all four paws into the dark compartment was recorded.
Once the rat moved completely in the dark compartment, the door was closed and immediately a mild foot shock was delivered through the grid floor. Thus, during the initial phase the animal learned that the moving to the dark compartment had negative consequences. […]

[4] abbreviates: 10 μM, 10 minute application, then washout.

`c1ccc(-c2ncc3cc(-n4ccnc4)ccc3n2)cc1` [CR4056, 2-phenyl-6-(1H-imidazol-1-yl)quinazoline]: the “Time of exploration of the new object in testing phase, novel object recognition” value in experiment [1] is “increased the time of exploration of the new object”. In addition, in experiment [2] (setting [4]), the “Time after washout during which the effect remained unchanged” value is “up to 1 hour” and the “Time after washout to complete reversal of the effect” value lay within 3 to 4 h. In addition, the “Influence of preincubation time on inhibition of PKCF translocation” value in experiment [2] (10 μM, preincubation prolonged up to 24 hours or reduced to 10 seconds) is “did not change the extent of the effect”. Further, in experiment [2] (CR4056 10 M, co-incubation 30 seconds to 24 hours pre-incubation, BK 1 μM, t-test p<0.05, n=6), the “Effect on BK-induced PKCF translocation, time-course (FIG. 1A)” value was “highly significant at all times”. Further, the “Concentration at which the dose-response curves approached saturation” value in experiment [2] (CR4056 applied for 10 minutes) is reported as “about 10 μM”. Besides, the IC50 in experiment [2] (bradykinin stimulus, read-out: IC50, inhibition of PKCF translocation obtained with BK) was found to be 200 nM. In addition, the IC50 in experiment [2] (prokineticin 2 stimulus, read-out: IC50, inhibition of PKCF translocation obtained with PK2) amounted to 170 nM. In addition, in experiment [3] (rats not treated with scopolamine, CR4056 10 mg/kg bid vs vehicle (MC)), the “Escape latency time, passive avoidance, sham animals” value is “not different from its vehicle”. In addition, in experiment [3] (rats, scopolamine 1 mg/kg sc, CR4056 10 mg/kg bid orally), the “Escape latency time, passive avoidance, scopolamine-treated animals” value is “counteracted the memory impairment”.

The term IC50 denotes the point on the concentration scale where inhibition reaches its midpoint.
